Measurements from BindingDB's records for PubMed 1353247 (University of Nebraska, 1992).
Several values for one entry are separate records, joined by “and”; a condition that tells them apart may be missing. Equal values may be shown once.

Experiments:
[1] = target: T1, Alpha-2B adrenergic receptor (Rattus norvegicus, UniProt P19328)
T1 sequence (P19328 whole entry): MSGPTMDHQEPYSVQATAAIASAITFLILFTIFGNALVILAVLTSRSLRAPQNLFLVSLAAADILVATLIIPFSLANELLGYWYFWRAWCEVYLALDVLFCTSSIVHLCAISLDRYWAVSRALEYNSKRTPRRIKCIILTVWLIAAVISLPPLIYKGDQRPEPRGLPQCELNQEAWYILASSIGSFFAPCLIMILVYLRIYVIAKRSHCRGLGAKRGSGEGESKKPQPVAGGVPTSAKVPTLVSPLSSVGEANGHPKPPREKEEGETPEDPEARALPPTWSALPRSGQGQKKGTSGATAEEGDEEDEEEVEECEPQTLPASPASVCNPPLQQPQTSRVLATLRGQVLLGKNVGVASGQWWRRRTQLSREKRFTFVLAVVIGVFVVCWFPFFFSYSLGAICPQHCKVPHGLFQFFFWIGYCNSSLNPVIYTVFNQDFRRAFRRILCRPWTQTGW

[2] = target: T2, Alpha-2C adrenergic receptor (Homo sapiens, UniProt P18825)
T2 sequence (P18825 whole entry): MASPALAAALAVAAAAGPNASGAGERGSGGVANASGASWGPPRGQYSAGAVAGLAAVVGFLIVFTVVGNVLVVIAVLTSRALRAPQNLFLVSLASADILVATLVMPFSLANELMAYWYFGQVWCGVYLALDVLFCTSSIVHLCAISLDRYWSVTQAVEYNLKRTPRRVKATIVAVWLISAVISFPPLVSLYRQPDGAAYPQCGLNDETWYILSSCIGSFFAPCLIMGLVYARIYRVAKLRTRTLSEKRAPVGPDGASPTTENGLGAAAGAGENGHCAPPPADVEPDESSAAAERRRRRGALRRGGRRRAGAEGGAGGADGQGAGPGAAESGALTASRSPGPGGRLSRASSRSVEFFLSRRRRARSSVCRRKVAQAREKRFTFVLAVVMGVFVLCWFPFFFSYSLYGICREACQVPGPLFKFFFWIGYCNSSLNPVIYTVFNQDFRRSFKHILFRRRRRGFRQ

[3] = target: Alpha-2C adrenergic receptor
[4] = target: T3, Alpha-2A adrenergic receptor (Homo sapiens, UniProt P08913)
T3 sequence (P08913 whole entry): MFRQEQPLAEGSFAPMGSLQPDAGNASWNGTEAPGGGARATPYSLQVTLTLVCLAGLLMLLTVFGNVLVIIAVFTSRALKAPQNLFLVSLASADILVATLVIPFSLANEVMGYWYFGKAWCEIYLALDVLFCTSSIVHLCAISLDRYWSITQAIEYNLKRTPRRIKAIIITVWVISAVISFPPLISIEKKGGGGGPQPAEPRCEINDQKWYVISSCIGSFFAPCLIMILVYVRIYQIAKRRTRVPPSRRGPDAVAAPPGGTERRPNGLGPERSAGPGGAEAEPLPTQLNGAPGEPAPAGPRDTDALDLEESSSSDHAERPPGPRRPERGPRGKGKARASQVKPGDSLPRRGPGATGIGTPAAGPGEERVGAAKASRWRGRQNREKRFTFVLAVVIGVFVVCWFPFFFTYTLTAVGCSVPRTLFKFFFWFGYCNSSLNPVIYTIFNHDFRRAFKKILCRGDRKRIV

Structure (SMILES): COc1cccc(OC)c1OCCNCC1Oc2ccccc2OC1c1ccccc1 (stereo not drawn) [NSC_185453]
- Ki [1]: 7.89 nM
- Ki [2]: 0.4 nM
- Ki [3]: 0.75 nM
- Ki [4]: 0.91 nM and 1.27 nM

Structure (SMILES): COC(=O)C1=COC(C)C2CN3CCc4c([nH]c5ccccc45)C3CC12 (stereo not drawn) [Ajmalicine]
- Ki [1]: 31.2 nM
- Ki [3]: 1.71 nM
- Ki [4]: 6.4 nM

Structure (SMILES): COC(=O)C1=CO[C@@H](C)[C@@H]2CN3CCc4c([nH]c5ccccc45)[C@H]3C[C@H]12 [AKUAMMIGINE]
- Ki [1]: 159 nM
- Ki [3]: 20 nM
- Ki [4]: 71 nM and 104 nM

Structure (SMILES): CN1C[C@H](Cn2ccnc2-c2ccccc2)C[C@@H]2c3cccc4[nH]c(Br)c(c34)C[C@H]21 [BAM-1303]
- Ki [1]: 6.94 nM
- Ki [2]: 0.39 nM
- Ki [4]: 0.39 nM and 1.34 nM

Structure (SMILES): COc1ccccc1N1CCN(CCC2C(=O)c3ccccc3C(C)(C)C2=O)CC1 (stereo not drawn) [NSC_122211]
- Ki [2]: 3.82 nM

Structure (SMILES): O=C1NCN(c2ccccc2)C12CCN(CC1COc3ccccc3O1)CC2 (stereo not drawn) [8-(2,3-Dihydro-benzo[1,4]dioxin-2-ylmethyl)-1-phenyl-1,3,8-triaza-spiro[4.5]decan-4-one]
- Ki [1]: 0.29 nM
- Ki [2]: 0.13 nM
- Ki [3]: 0.26 nM
- Ki [4]: 5.5 nM and 8.3 nM
